Among the data in patent publication US20250129021A1, “SMALL MOLECULE PROTEIN SYNTHESIS MODULATORS” (Interdict Bio, Inc., priority 2023, published 2025) are IC50 values, retold here.

Holding throughout (format): biochemical
Assay [1] concerns MYC. Nature of the assay: In vitro transcription-translation (IVTT) assay, MYC reporter. The note with it: IVTT assay, HeLa S3 lysate, MYC reporter, normalized sfGFP/mCherry ratio; half-log dilutions 30 μM-0.1 μM, 2 hrs at 30° C. An outline of the steps: (§1)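 Reporter: mCherry, P2A, then 3×FLAG-target peptide-sfGFP fusion, IRES-initiated; HeLa S3 lysate IVTT; cpd dilutions 30 μM−0.1 μM half-log in 100% DMSO (dilution-plate conc); DNA added last; 2 h, 30° C; PBS quench.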

Assay [2] relates to CCND1. As to the kind of experiment: In vitro transcription-translation (IVTT) assay, CCND1 reporter. The settings on record: IVTT assay, HeLa S3 lysate, sfGFP/mCherry ratio. An outline of the steps:
as §1

For assay [3], the system named is NFKB1. As to the kind of experiment: In vitro transcription-translation (IVTT) assay, NFKB1 reporter. The note with it: HeLa S3 lysate, sfGFP/mCherry ratio. The procedure:
In vitro transcription-translation assay setup: Each assay includes a master mix containing lysate and shared components, a 96-well plate containing compound titrations for testing, a 96-well DNA plate with reporter constructs to be tested, 96-well skirted PCR plates, and 96-well flat-bottom, black, fluorescent assay plates. Reaction materials setup: (A) Master mix—15 mL conical tube (3 mL of HeLa S3 Lysate described above; 0.6 mL of ThermoFisher Accessory Proteins (#88882); 1.2 ml of ThermoFisher Reaction Mix (#88882); 0.54 mL of nuclease-free Water); (B) 96-Well Master Mix+Compound Plate (Half-log dilutions (30 μM−0.1 μM) of 4 compounds of interest are prepared in 100% DMSO); 96-Well DNA Plate (Five DNA constructs are plated into single columns within the plate. Row 1 of the column contains nuclease free H2O, all other wells contain 110 ng/μL plasmid DNA). Reactions are started by mixing 155 μL of master mix and 3.5 μL of compound serial dilutions, then 9.1 μL of master mix+compound mixture is aliquoted across 5 96-well plates. Reactions begin with final addition of 2 μL of DNA for a 11.1 μL reaction volume in each well. The entire plate is sealed, and incubated for 2 hrs at 30° C. After 2 hrs, quench the assay using 45 μL of PBS, and transfer 50 μL to a flat-bottom black microplate Quantify the sfGFP and mCherry signals from each well on each plate, taking 3 reads of each plate, and perform data analysis below.
In vitro transcription-translation assay data analysis: Each plate is read three times in channels for both sfGFP and mCherry signals. The average signal across these 3 reads is then calculated for further analysis. Control wells containing no DNA reporter are subtracted from reporter wells in the same column to remove auto-fluorescence of the lysate. Then, the ratio of sfGFP/mCherry is calculated per well, and these ratios are averaged across the triplicate experiments on the same plate. Finally, the ratio of each titration concentration is normalized to the no drug control to create the normalized stalling metric. The error on this measurement is determined by propagating error through the averaging and normalization steps. Values are plotted and fit for IC50 determination for each test sequence and titration of compound.

Assay [4] deals with MCL-1. Nature of the assay: In vitro transcription-translation (IVTT) assay, MCL-1 reporter. The note with it: IVTT assay, HeLa S3 lysate, sfGFP/mCherry ratio; read-out: MCL1 IC50. The essentials:
as §1

Assay [5] concerns CCNTB1. As to the kind of experiment: In vitro transcription-translation (IVTT) assay, CCNTB1 reporter. The note with it: HeLa S3 lysate, sfGFP/mCherry ratio. An outline of the steps:
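Cell-free HeLa S3 lysate reactions expressing sfGFP/mCherry reporter constructs ran 2 h at 30 °C with compound from half-log DMSO series (30 μM–0.1 μM as prepared), then were quenched with PBS. No-DNA background was subtracted, and the sfGFP/mCherry ratio was normalized to the no-drug control and fit for IC50.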

In general, IC50 refers to the concentration needed to halve the response being measured.

In the case of `O=C(NCc1cc(F)c(O)c(F)c1)O[C@@H]1[C@@H](O)CN[C@@H]1Cc1ccc(-c2cnco2)cc1` [V192433, (2R,3S,4S)-4-hydroxy-2-{[4-(1,3-oxazol-5-yl)phenyl]methyl}pyrrolidin-3-yl N-[(3,5-difluoro-4-hydroxyphenyl)methyl]carbamate], the IC50 in assay [1], in assay [2] and in assay [3] was below 10 µM in each case.
Consider `O=C(NCc1cccc(F)c1)O[C@@H]1[C@@H](O)CN[C@@H]1Cc1ccc(-c2cnns2)cc1` [V192319, (2R,3S,4S)-4-hydroxy-2-{[4-(1,2,3-thiadiazol-5-yl)phenyl]methyl}pyrrolidin-3-yl N-[(3-fluorophenyl)methyl]carbamate], for which the IC50 in assay [1], in assay [2] and in assay [3] was below 10 µM throughout.
As for `O=C(NCc1cccc(OC(F)(F)F)c1)O[C@@H]1[C@@H](O)CN[C@@H]1Cc1ccc(-c2cnco2)cc1` [V192276, (2R,3S,4S)-4-hydroxy-2-{[4-(1,3-oxazol-5-yl)phenyl]methyl}pyrrolidin-3-yl N-{[3-(trifluoromethoxy)phenyl]methyl}carbamate], the IC50 in assay [1], in assay [2] and in assay [3] was below 10 µM in each case.
Take `O=C(NCCC12CC(CN1)C2)O[C@@H]1[C@@H](O)CN[C@@H]1Cc1ccc(-c2cnco2)cc1` [V192847, (2R,3S,4S)-4-hydroxy-2-{[4-(1,3-oxazol-5-yl)phenyl]methyl}pyrrolidin-3-yl N-(2-{2-azabicyclo[2.1.1]hexan-1-yl}ethyl)carbamate]: the concentration for half-maximal inhibition (IC50) in assay [1], in assay [2] and in assay [3] was below 10 µM each time.
With `CNC1(c2ccc(CNC(=O)O[C@@H]3[C@@H](O)CN[C@@H]3Cc3ccc(-c4cnco4)cc3)cc2)CC1` [V192288, (2R,3S,4S)-4-hydroxy-2-{[4-(1,3-oxazol-5-yl)phenyl]methyl}pyrrolidin-3-yl N-({4-[1-(methylamino)cyclopropyl]phenyl}methyl)carbamate], the IC50 in assay [1], in assay [2] and in assay [3] was below 10 µM throughout.
`O=C(NCC[C@H]1CCNC[C@H]1F)O[C@@H]1[C@@H](O)CN[C@@H]1Cc1ccc(-c2cnco2)cc1` [V192897, (2R,3S,4S)-4-hydroxy-2-{[4-(1,3-oxazol-5-yl)phenyl]methyl}pyrrolidin-3-yl N-{2-[(3S,4R)-3-fluoropiperidin-4-yl]ethyl}carbamate]: the IC50 in assay [1] was below 10 µM; in assay [2], 10 to 20 µM; in assay [3], below 10 µM.
Consider “(3S,4S,5R)-4-({[(3-fluorophenyl)methyl]carbamoyl}oxy)-5-{[4-(1,3-oxazol-5-yl)phenyl]methyl}pyrrolidin-3-yl acetate [V192392]”, for which the IC50 in assay [1], in assay [2] and in assay [3] was below 10 µM each time.
Turning to `O=C(NCc1cccc(F)c1)O[C@@H]1[C@@H](O)CN[C@@H]1Cc1ccc(-c2nncs2)cc1` [V192411, (2R,3S,4S)-4-hydroxy-2-{[4-(1,3,4-thiadiazol-2-yl)phenyl]methyl}pyrrolidin-3-yl N-[(3-fluorophenyl)methyl]carbamate], the IC50 in assay [1], in assay [2] and in assay [3] was below 10 µM throughout.
As for `O=C(NCc1cccc(F)c1)O[C@@H]1[C@@H](O)CN[C@@H]1Cc1ccc(C(F)F)cc1` [V192274, (2R,3S,4S)-2-{[4-(difluoromethyl)phenyl]methyl}-4-hydroxypyrrolidin-3-yl N-[(3-fluorophenyl)methyl]carbamate], the half-inhibitory concentration (IC50) in assay [1], in assay [2] and in assay [3] was below 10 µM each time.
As to `O=C(NCc1cccc(F)c1)O[C@@H]1[C@@H](O)CN[C@@H]1Cc1ccc(-c2cn3ccnc3s2)cc1` [V192127, (2R,3S,4S)-4-hydroxy-2-[(4-{imidazo[2,1-b][1,3]thiazol-2-yl}phenyl)methyl]pyrrolidin-3-yl N-[(3-fluorophenyl)methyl]carbamate], the IC50 in assay [1], in assay [2] and in assay [3] was below 10 µM in each case.
Take `COc1ccc(C[C@H]2NC[C@H](O)[C@H]2OC(=O)NCC[C@@H]2CCCNC2)cc1` [V191903, (2R,3S,4S)-4-hydroxy-2-[(4-methoxyphenyl)methyl]pyrrolidin-3-yl N-{2-[(3S)-piperidin-3-yl]ethyl}carbamate]: the IC50 in assay [4] is below 10 µM; in assay [5], below 10 µM; in assay [1], below 10 µM; in assay [2] it was 10 to 20 µM.
As to `COc1ccc(C[C@H]2NC[C@H](O)[C@H]2OC(=O)NCC[C@@H]2CC(F)(F)CN2)cc1` [V190526, (2R,3S,4S)-4-hydroxy-2-[(4-methoxyphenyl)methyl]pyrrolidin-3-yl N-{2-[(2R)-4,4-difluoropyrrolidin-2-yl]ethyl}carbamate], the IC50 was 10 to 20 µM in assay [4], below 10 µM in assay [5], 10 to 20 µM in assay [1] and above 30 µM in assay [2].
`O=C(NCc1cccc(F)c1)O[C@@H]1[C@@H](O)CN[C@@H]1Cc1ccc(-c2ccc(C(F)(F)F)cc2)cc1` [V192083, (2R,3S,4S)-4-hydroxy-2-{[4′-(trifluoromethyl)-[1,1′-biphenyl]-4-yl]methyl}pyrrolidin-3-yl N-[(3-fluorophenyl)methyl]carbamate]: the IC50 in assay [4], in assay [5], in assay [1] and in assay [2] was above 30 µM throughout.
In the case of `O=C(NCc1cccc(F)c1)O[C@@H]1[C@@H](O)CN[C@@H]1Cc1cccnc1` [V190519, (2R,3S,4S)-4-hydroxy-2-(pyridin-3-ylmethyl)pyrrolidin-3-yl N-[(3-fluorophenyl)methyl]carbamate], the IC50 in assay [4] is above 30 µM; in assay [5], 20 to 30 µM; in assay [1] it was 20 to 30 µM; in assay [2] it was above 30 µM.
On to `O=C(NCc1cccc(F)c1)O[C@@H]1[C@@H](O)CN[C@@H]1Cc1ccc(-c2cn3ccccc3n2)cc1` [V192139], for which the half-maximal inhibitory concentration (IC50) in assay [4], in assay [5], in assay [1] and in assay [2] was below 10 µM each time.
Regarding `COc1ccc(C[C@H]2NC[C@H](O)[C@H]2OC(=O)NCC[C@H]2CCCNC2)cc1` [V192046, (2R,3S,4S)-4-hydroxy-2-[(4-methoxyphenyl)methyl]pyrrolidin-3-yl N-{2-[(3R)-piperidin-3-yl]ethyl}carbamate], the half-maximal inhibitory concentration (IC50) in assay [4] was below 10 µM; in assay [5] it was below 10 µM; in assay [1], below 10 µM; in assay [2] it was 10 to 20 µM.
On to `COc1ccc(C[C@H]2NC[C@H](O)[C@H]2OC(=O)NCc2ccnc(N3CC(F)(F)C3)c2)cc1` [V192066, (2R,3S,4S)-4-hydroxy-2-[(4-methoxyphenyl)methyl]pyrrolidin-3-yl N-{[2-(3,3-difluoroazetidin-1-yl)pyridin-4-yl]methyl}carbamate], for which the IC50 in assay [4] was below 10 µM; in assay [5] it was 10 to 20 µM; in assay [1], below 10 µM; in assay [2], below 10 µM.
For `O=C(NCc1ccc2c(c1)CCNC2)O[C@@H]1[C@@H](O)CN[C@@H]1Cc1ccc(-c2ccc(C(F)(F)F)cc2)cc1` [V192058, (2R,3S,4S)-4-hydroxy-2-{[4′-(trifluoromethyl)-[1,1′-biphenyl]-4-yl]methyl}pyrrolidin-3-yl N-(1,2,3,4-tetrahydroisoquinolin-6-ylmethyl)carbamate], the IC50 was above 30 µM in assay [4], 20 to 30 µM in assay [5], above 30 µM in assay [1] and above 30 µM in assay [2].
With `O=C(NCc1cccc(F)c1)O[C@@H]1[C@@H](O)CN[C@@H]1Cc1ccc(-c2nnc(C(F)(F)F)s2)cc1` [V192102, (2R,3S,4S)-4-hydroxy-2-({4-[5-(trifluoromethyl)-1,3,4-thiadiazol-2-yl]phenyl}methyl)pyrrolidin-3-yl N-[(3-fluorophenyl)methyl]carbamate], the IC50 in assay [4] was above 30 µM; in assay [5], 10 to 20 µM; in assay [1], 10 to 20 µM; in assay [2], above 30 µM.
